Measured values reported in US12285012B2, “Compositions comprising pyridine carboxylate herbicides with acetolactate synthase (ALS) inhibitor herbicides” (Corteva Agriscience LLC, priority 2018, dated 2025).
Read-outs that look alike come from different tables or passages of the source.

Legend:
[1] = tested on: wild pansy (VIOTR, Viola tricolor); test: Greenhouse postemergence herbicidal effect; format: in vivo
Protocol: (§1) The plants were grown for 7-36 days (d) in a greenhouse with an approximate 14-hour (h) photo-period which was maintained at about 23° C. during the day and 22° C. during the night. Nutrients and water were added on a regular basis and supplemental lighting was provided with overhead metal halide 1000-Watt lamps as necessary. The plants were employed for testing when they reached the second or third true leaf stage.
(§2) The emulsifiable concentrates also included a safener, cloquintocet-mexyl, at 120 grams active ingredient per liter (g ai/L), unless otherwise noted below.
(§3) Control plants were sprayed in the same manner with the solvent blank. All pyridine carboxylate herbicide (component a) application rates are given as “g ae/ha” and all ALS inhibitor (component b) application rates are given as “g ai/ha.”
(§4) The treated plants and control plants were placed in a greenhouse as described above and watered by sub-irrigation to prevent wash-off of the test compounds. After 20-22 d, the condition of the test plants as compared with that of the control plants was determined visually and scored on a scale of 0 to 100 percent where 0 corresponds to no injury and 100 corresponds to complete kill.

[2] = tested on: Canadian thistle (CIRAR, Cirsium arvense); test: Greenhouse postemergence herbicidal effect; format: in vivo; conditions: for Obs % visual injury: CIRAR
Protocol: as §1, §2, §3, §4

[3] = tested on: kochia (KCHSC, Kochia scoparia); test: Greenhouse postemergence herbicidal effect; format: in vivo; conditions: for Obs % visual injury: KCHSC
Protocol: (§5) Seeds of the desired test plant species were planted in a 90:10% v/v (volume/volume) mixture of PRO-MIX® BX (Premier Tech Horticulture, Quakertown, PA, USA) and PROFILE® GREENS GRADE™ (Profile Products LLC, Buffalo Grove, IL, USA) planting mixture, which typically has a pH of 5.2 to 6.2 and an organic matter content of at least 50 percent, in plastic pots with a surface area of 103.2 square centimeters (cm^2). […] The plants were grown for 7-36 days (d) in a greenhouse with an approximate 14-hour (h) photo-period which was maintained at about 23° C. during the day and 22° C. during the night. Nutrients and water were added on a regular basis and supplemental lighting was provided with overhead metal halide 1000-Watt lamps as necessary. The plants were employed for testing when they reached the second or third true leaf stage.
(§6) Emulsifiable concentrates of each of each pyridine carboxylate herbicide (Compound A or Compound B) were prepared at 100 grams acid equivalent per liter (g ae/L). The emulsifiable concentrates also included a safener, cloquintocet-mexyl, at 120 grams active ingredient per liter (g ai/L), unless otherwise noted below. An aliquot of each emulsifiable concentrate was placed in a 25 mL glass vial and diluted with an aqueous mixture of 1.25% (v/v) ACTIROB® B esterified rapeseed oil (Bayer Crop Science, Research Triangle Park, NC, USA) or MSO® Concentrate with LECI-TECH® methylated soybean oil (Loveland Products, Loveland, CO, USA) to obtain concentrated stock solutions at the highest application rate for each herbicide, based upon a 12 milliliter (mL) application volume at a rate of 187 liters per hectare (L/ha). The concentrated stock solutions were further diluted with an aqueous mixture of 1.25% v/v ACTIROB® B or MSO® Concentrate with LECI-TECH® to obtain stock solutions at reduced application rates for each herbicide. Spray solutions of the herbicide combinations (Compound A or Compound B plus ALS herbicide) were prepared by adding weighed amounts or aliquots of the ALS herbicides to the stock solutions of Compound A or Compound B to form 12-mL spray solutions in two- or three-way combinations.
(§7) The spray solutions were applied to the plant material with an overhead Mandel track sprayer equipped with 8002E nozzles calibrated to deliver 187 L/ha over an application area of 0.503 square meters (m^2) at a spray height of 18 inches (43 centimeters (cm)) above the average plant canopy. Control plants were sprayed in the same manner with the solvent blank. All pyridine carboxylate herbicide (component a) application rates are given as “g ae/ha” and all ALS inhibitor (component b) application rates are given as “g ai/ha.”
as §4

spring wheat (TRZAS) = format: in vivo, Triticum aestivum; conditions: for Obs % visual injury: TRZAS
Protocol: as §1, §2, §3, §4

[4] = tested on: wild chamomile (MATCH, Matricaria chamomilla); test: Greenhouse postemergence herbicidal effect; format: in vivo
Protocol: as §1, §2, §3, §4

[5] = tested on: Russian thistle (SASKR, Salsola kali); test: Greenhouse postemergence herbicidal effect; format: in vivo
Protocol: as §1, §2, §3, §4

[6] = tested on: wild mustard (SINAR, Sinapis arvensis); test: Greenhouse postemergence herbicidal effect; format: in vivo
Protocol: as §1, §2, §3, §4

[7] = tested on: spring rape (BRSNN, Brassica napus); test: Greenhouse postemergence herbicidal effect; format: in vivo; conditions: 30 g/ha
Protocol: as §1, §2, §3, §4

spring barley (HORVS) = format: in vivo, Hordeum vulgare; conditions: for Obs % visual injury: HORVS
Protocol: as §1, §2, §3, §4

[8] = tested on: wild buckwheat (POLCO, Polygonum convolvulus); test: Greenhouse postemergence herbicidal effect; format: in vivo; conditions: for Obs % visual injury: POLCO
Protocol: as §1, §2, §3, §4

[9] = tested on: pigweed (AMARE, Amaranthus retroflexus); test: Greenhouse postemergence herbicidal effect; format: in vivo; conditions: for Obs % visual injury: AMARE
Protocol: as §1, §2, §3, §4

[10] = tested on: winter rape (BRSNW, Brassica napus); test: Greenhouse postemergence herbicidal effect; format: in vivo
Protocol: as §1, §2, §3, §4

[11] = tested on: common lambsquarters (CHEAL, Chenopodium album L.); test: Greenhouse postemergence herbicidal effect; format: in vivo; conditions: for Obs % visual injury: CHEAL
Protocol: as §5, §6, §7, §4

[12] = tested on: chickweed (STEME, Stellaria media); test: Greenhouse postemergence herbicidal effect; format: in vivo; conditions: STEME; Pyriminobac methyl 30 g/ha
Protocol: as §1, §2, §3, §4

[13] = tested on: broad-leaf dock (RUMOB, Rumex obtusifolius); test: Greenhouse postemergence herbicidal effect; format: in vivo; conditions: RUMOB; Pyriminobac methyl 30 g/ha
Source text: (§8) Seeds of the desired test plant species were planted in a 90:10% v/v (volume/volume) mixture of PRO-MIX® BX (Premier Tech Horticulture, Quakertown, PA, USA) and PROFILE® GREENS GRADE™ (Profile Products LLC, Buffalo Grove, IL, USA) planting mixture, which typically has a pH of 5.2 to 6.2 and an organic matter content of at least 50 percent, in plastic pots with a surface area of 103.2 square centimeters (cm^2). In some aspects, to ensure good germination and healthy plants, a fungicide treatment and/or other chemical or physical treatment was applied. The plants were grown for 7-36 days (d) in a greenhouse with an approximate 14-hour (h) photo-period which was maintained at about 23° C. during the day and 22° C. during the night. Nutrients and water were added on a regular basis and supplemental lighting was provided with overhead metal halide 1000-Watt lamps as necessary. The plants were employed for testing when they reached the second or third true leaf stage.
as §6, §7, §4

[14] = tested on: large crabgrass (DIGSA, Digitaria sanguinalis); test: Greenhouse postemergence herbicidal effect; format: in vivo; conditions: DIGSA; Pyriminobac methyl 30 g/ha
Source text: as §8, §6, §7, §4

## COCc1cnc(C2=NC(C)(C(C)C)C(=O)N2)c(C(=O)O)c1 (stereo not drawn) [Imazamox, imazamox]
[1]; 17.5 g/ha
  % visual injury, Obs: 75%
[2]; Cirsium arvense, post-emergence, 17.5 g/ha, read-out: % visual injury, Obs
  pest or weed control at 17.5 g/ha: 63%

## CC(C)C1(C)N=C(c2ncccc2C(=O)O)NC1=O (stereo not drawn) [Imazapyr, imazapyr]
[1]; 140 g/ha
  % visual injury, Obs: 63%
[2]; Cirsium arvense, post-emergence, 140 g/ha, read-out: % visual injury, Obs
  pest or weed control at 140 g/ha: 80%
[3]; Bassia scoparia, post-emergence, 140 g/ha, read-out: % visual injury, Obs
  pest or weed control at 140 g/ha: 54%

## COc1cc(OC)nc(Sc2cccc3c2C(=O)OC3C)n1 (stereo not drawn) [Pyriftalid, pyriftalid]
Spring wheat (TRZAS); 30 g/ha
  % visual injury, Obs: 0%
[4]; 30 g/ha
  % visual injury, Obs: 0%
[5]; 30 g/ha
  % visual injury, Obs: 0%
[6]; 30 g/ha
  % visual injury, Obs: 23%
[7]
  % visual injury, Obs: 18%
Spring barley (HORVS); 30 g/ha
  % visual injury, Obs: 5%
[3]; Bassia scoparia, post-emergence, 30 g/ha, read-out: % visual injury, Obs
  pest or weed control at 30 g/ha: 0%

## imazamethabenz
Spring wheat (TRZAS); Imazamethabenz 100 g/ha
  % visual injury: 0%
  Obs % visual injury: 0%
Spring wheat (TRZAS); Imazamethabenz 200 g/ha
  Obs % visual injury: 0%
[8]; Imazamethabenz 100 g/ha
  % visual injury: 70%
[8]; Imazamethabenz 200 g/ha
  Obs % visual injury: 88%
[9]; Imazamethabenz 200 g/ha
  Obs % visual injury: 5%
[9]; Imazamethabenz 100 g/ha
  % visual injury: 0%
[2]; Imazamethabenz 100 g/ha
  Obs % visual injury: 5%
  % visual injury: 0%
[2]; Imazamethabenz 200 g/ha
  Obs % visual injury: 5%
[4]; Imazamethabenz 100 g/ha
  % visual injury: 0%
[4]; MATCH, Imazamethabenz 200 g/ha
  Obs % visual injury: 5%
[5]; Imazamethabenz 100 g/ha
  % visual injury: 0%
[5]; SASKR, Imazamethabenz 100 g/ha
  Obs % visual injury: 13%
[6]; Imazamethabenz 100 g/ha
  % visual injury: 68%
[6]; SINAR, Imazamethabenz 200 g/ha
  Obs % visual injury: 75%
[10]; BRSNW, Imazamethabenz 200 g/ha
  Obs % visual injury: 53%
[10]; Imazamethabenz 100 g/ha
  % visual injury: 35%
Spring barley (HORVS); Imazamethabenz 100 g/ha
  Obs % visual injury: 0%
  % visual injury: 0%
Spring barley (HORVS); Imazamethabenz 200 g/ha
  Obs % visual injury: 0%
[11]; Imazamethabenz 100 g/ha
  Obs % visual injury: 0%
  % visual injury: 0%
[11]; Imazamethabenz 200 g/ha
  Obs % visual injury: 0%
[3]; Imazamethabenz 100 g/ha
  % visual injury: 0%
[3]; Imazamethabenz 200 g/ha
  Obs % visual injury: 0%

## pyriminobac
Spring wheat (TRZAS); Pyriminobac methyl 30 g/ha
  Obs % visual injury: 0%
[8]; Pyriminobac methyl 30 g/ha
  Obs % visual injury: 80%
[1]; VIOTR, Pyriminobac methyl 30 g/ha
  Obs % visual injury: 5%
[12]
  Obs % visual injury: 15%
[9]; Pyriminobac methyl 30 g/ha
  Obs % visual injury: 93%
[2]; Pyriminobac methyl 30 g/ha
  Obs % visual injury: 8%
[13]
  Obs % visual injury: 65%
[14]
  Obs % visual injury: 0%
[11]; Pyriminobac methyl 30 g/ha
  Obs % visual injury: 20%
[3]; Pyriminobac methyl 30 g/ha
  Obs % visual injury: 33%
